Patent publication US4992449A, “7-(substituted)cycloalkylamino-1 -(substituted)-6-fluoro-1,4-dihydro-4-oxo-3-quinolinecarboxylic acids” (American Cyanamid Company, priority 1990, dated 1991)
In brackets after ≈: the same amount, converted by molar mass. Where two headings read alike, the source gives them in different places.

How the values were obtained:
Experiment in all cases: In vitro antibacterial MIC, agar plate dilution
Type in all cases: cell-based
[1] = system: Staphylococcus aureus ATCC 29213; conditions: Table II
Description: (§1) The in vitro antimicrobial spectrum of the compounds of this invention were determined by the agar plate dilution method with Mueller-Hinton agar and an inoculum of each test organism of approximately 10^4 colony forming units delivered by the Steers replicating device. The minimal inhibitory concentration (MIC) in mcg/ml is defined as the lowest concentration of test compound that inhibited visible growth after 18 hours incubation at 35° C. Results are given in Table I, with the test compounds identified by the number of their hereinafter described examples

[2] = system: Streptococcus faecalis VGH 84-65; conditions: Table II
Description: as §1

[3] = system: Escherichia coli ATCC 25922; conditions: Table II, Excherichia coli ATCC 25922
Description: as §1

[4] = system: Excherichia coli LL 311; conditions: Table II
Description: as §1

[5] = system: Staphylococcus aureus Smith 1; conditions: Table II
Description: as §1

[6] = system: Staphylococcus aureus VGH 84-45; conditions: Table II
Description: as §1

[7] = system: Serratia marcescens VGH 84-30; conditions: Table II
Description: as §1

[8] = system: Streptococcus faecalis UCI 85-19; conditions: Table II
Description: as §1

[9] = system: Proteus rettgeri CMC 84-41; conditions: Table II
Description: as §1

[10] = system: Pseudomonas aeruginosa VGH 84-4; conditions: Table II
Description: as §1

[11] = system: Serratia marcescens K 84-18; conditions: Table II
Description: as §1

[12] = system: Pseudomonas aeruginosa LL-1244; conditions: Table II
Description: as §1

[13] = system: Morganella morganii CMC 84-37; conditions: Table II
Description: as §1

[14] = system: Excherichia coli CMC 84-11; conditions: Table II
Description: as §1

[15] = Staphylococcus aureus, ATCC29213, 18 h, read-out: MIC
[16] = Enterococcus faecalis, VGH8465, 18 h, read-out: MIC
[17] = Escherichia coli, ATCC25922, 18 h, read-out: MIC
[18] = Staphylococcus aureus, SMITH1, 18 h, read-out: MIC
[19] = Enterococcus faecalis, UCI8519, 18 h, read-out: MIC
[20] = Providencia rettgeri, CMC8441, 18 h, read-out: MIC
[21] = Pseudomonas aeruginosa, VGH844, 18 h, read-out: MIC
[22] = Pseudomonas aeruginosa, LL1244, 18 h, read-out: MIC

MIC [5] [µg/mL] | MIC [1, 15] [µg/mL] | MIC [2, 16] [µg/mL] | MIC [3, 17] [µg/mL] | MIC ([4]; 18 h, read-out: MIC) [µg/mL] | MIC [5, 18] [µg/mL] | MIC ([6]; VGH8445, 18 h, read-out: MIC) [µg/mL] | MIC ([7]; VGH8430, 18 h, read-out: MIC) [µg/mL] | MIC [8, 19] [µg/mL] | MIC [9, 20] [µg/mL] | MIC [10, 21] [µg/mL] | MIC ([11]; K8418, 18 h, read-out: MIC) [µg/mL] | MIC [12, 22] [µg/mL] | MIC ([13]; CMC8437, 18 h, read-out: MIC) [µg/mL] | MIC ([14]; 18 h, read-out: MIC) [µg/mL] | Structure (SMILES) | also measured
128.00 (≈ 368 µM) |  |  |  |  |  |  |  |  |  |  |  |  |  |  | CCn1cc(C(=O)O)c(=O)c2cc(F)c(N[C@@H]3CCCC[C@H]3N)cc21 (relative stereo) [Example 9, Trans-(+)-7-[(2-Aminocyclohexyl)amino]-1-ethyl-6-fluoro-1,4-dihydro-4-oxo-3-quinolinecarboxylic acid] | MIC [1]: > 128.00 µg/mL; MIC [2]: 64.00 µg/mL (≈ 184 µM); MIC [3]: 32.00 µg/mL (≈ 92.1 µM); MIC [4]: 32.00 µg/mL (≈ 92.1 µM); MIC [6]: 128.00 µg/mL (≈ 368 µM); MIC [7]: 128.00 µg/mL (≈ 368 µM); MIC [8]: 128.00 µg/mL (≈ 368 µM); MIC [9]: 128.00 µg/mL (≈ 368 µM); MIC [10]: 128.00 µg/mL (≈ 368 µM); MIC [11]: 32.00 µg/mL (≈ 92.1 µM); MIC [12]: 128.00 µg/mL (≈ 368 µM); MIC [13]: 32.00 µg/mL (≈ 92.1 µM); MIC [14]: 16.00 µg/mL (≈ 46.1 µM)
 | 8 (≈ 22.1 µM) | 32 (≈ 88.5 µM) | 8 (≈ 22.1 µM) | 4 (≈ 11.1 µM) | 2 (≈ 5.53 µM) | 4 (≈ 11.1 µM) | 32 (≈ 88.5 µM) | 32 (≈ 88.5 µM) | 32 (≈ 88.5 µM) | 128 (≈ 354 µM) | 8 (≈ 22.1 µM) | 128 (≈ 354 µM) | 8 (≈ 22.1 µM) | 4 (≈ 11.1 µM) | CCn1cc(C(=O)O)c(=O)c2cc(F)c(N[C@@H]3CCCC[C@@H]3NC)cc21 (relative stereo) [Example 10] | 
16.00 (≈ 46.1 µM) | 128 (≈ 368 µM) | 64 (≈ 184 µM) | 32 (≈ 92.1 µM) | 32 (≈ 92.1 µM) |  | 128 (≈ 368 µM) | 128 (≈ 368 µM) | 128 (≈ 368 µM) | 128 (≈ 368 µM) | > 128 | 32 (≈ 92.1 µM) | > 128 | 32 (≈ 92.1 µM) | 16 (≈ 46.1 µM) | CCn1cc(C(=O)O)c(=O)c2cc(F)c(N[C@@H]3CCCC[C@H]3N)cc21 (relative stereo) [Example 8, Trans-(-)-7-[(2-Aminocyclohexyl)amino]-1-ethyl-6-fluoro-1,4-dihydro-4-oxo-3-quinolinecarboxylic acid] | 

Continued, compound first:

Structure (SMILES) | MIC [5] [µg/mL] | MIC [1, 15] [µg/mL] | MIC [2, 16] [µg/mL] | MIC [3, 17] [µg/mL] | MIC ([4]; 18 h, read-out: MIC) [µg/mL] | MIC [5, 18] [µg/mL] | MIC ([6]; VGH8445, 18 h, read-out: MIC) [µg/mL] | MIC ([7]; VGH8430, 18 h, read-out: MIC) [µg/mL] | MIC [8, 19] [µg/mL] | MIC [9, 20] [µg/mL] | MIC [10, 21] [µg/mL] | MIC ([11]; K8418, 18 h, read-out: MIC) [µg/mL] | MIC [12, 22] [µg/mL] | MIC ([13]; CMC8437, 18 h, read-out: MIC) [µg/mL] | MIC ([14]; 18 h, read-out: MIC) [µg/mL] | also measured
CCn1cc(C(=O)O)c(=O)c2cc(F)c(N[C@@H]3CCCC[C@@H]3O)cc21 (relative stereo) [Example 5, Cis-7-[(2-Hydroxycyclohecxyl)amino]-1-ethyl-6-fluoro-1,4-dihydro-4-oxo-3-quinolinecarboxylic acid] |  | 64 (≈ 184 µM) | > 128 | 32 (≈ 91.9 µM) | 16 (≈ 45.9 µM) | 8 (≈ 23 µM) | 32 (≈ 91.9 µM) | > 128 | > 128 | 64 (≈ 184 µM) | > 128 | 64 (≈ 184 µM) | > 128 | 32 (≈ 91.9 µM) | 32 (≈ 91.9 µM) | 
CCn1cc(C(=O)O)c(=O)c2cc(F)c(N[C@@H]3CCCC[C@@H]3N)cc21 (relative stereo) [Example 6, Cis-7-[(2-Aminocyclohexyl)amino]-1-ethyl-6-fluoro-1,4-dihydro-4-oxo-3-quinolinecarboxylic acid] |  | 8 (≈ 23 µM) | 8 (≈ 23 µM) | 0.5 (≈ 1.44 µM) | 0.5 (≈ 1.44 µM) | 0.5 (≈ 1.44 µM) | 2 (≈ 5.76 µM) | 4 (≈ 11.5 µM) | 8 (≈ 23 µM) | 1 (≈ 2.88 µM) | 8 (≈ 23 µM) | 1 (≈ 2.88 µM) | 8 (≈ 23 µM) | 0.5 (≈ 1.44 µM) | 0.5 (≈ 1.44 µM) | 
CCn1cc(C(=O)O)c(=O)c2cc(F)c(N[C@@H]3CCCC[C@H]3N)cc21 (racemic) [Example 7, Trans-(+/-)-7-[(2-Aminocyclohexyl)amino]1-ethyl-6-fluoro-1,4-dihydro-4-oxo-3-quinolinecarboxylic acid] |  | > 128 | 64 (≈ 184 µM) | 32 (≈ 92.1 µM) | 32 (≈ 92.1 µM) | 16 (≈ 46.1 µM) | 128 (≈ 368 µM) | 128 (≈ 368 µM) | 128 (≈ 368 µM) | 128 (≈ 368 µM) | 128 (≈ 368 µM) | 64 (≈ 184 µM) | 128 (≈ 368 µM) | 32 (≈ 92.1 µM) | 16 (≈ 46.1 µM) | 
